{
  "source": "paper PMC11211886",
  "about": "(Frontiers in Pharmacology, 2024)",
  "key": {"[1]": {"tested_on": "CYP2C9", "assay": "CYP induction in human hepatocytes, CYP2C9 enzyme activity", "method": "(§1) […] […] […] Enzyme activity for each CYP isoform was reported as a fold change over vehicle control and the percent of positive control (detailed calculation in Supplementary 1.1). Hepatocytes were harvested with a lysis buffer from RNeasy 96 Kit (Qiagen Inc., Germantown, MD, USA) to isolate RNA, which was analyzed by real-time quantitative polymerase chain reaction (RT-PCR). […] Emax (the maximal observed induction) and EC50 (the concentration that supports half-maximal induction) were estimated by non-linear regression of fold increase in CYP mRNA expression versus concentration plots.\n(§2) The fold of vehicle control and the percent of positive control were calculated with the formulas below:\n(§3) Fold of vehicle control = CYPs activity of test compound (or positive control) treated sample / CYPs activity of vehicle control treated sample\n(§4) % of positive control = [(fold change in treated sample)-1] / [(fold change in positive control)-1] × 100\n(§5) Based on the enzyme activity, a minimum of 2-fold increase compared to vehicle control for the positive control and ≥40% of the positive control for the test article was considered as the cutoff for a positive signal in in vitro induction assay."}, "[2]": {"tested_on": "CYP2C8", "assay": "CYP induction in human hepatocytes, CYP2C8 enzyme activity", "method": "as §1, §2, §3, §4, §5"}, "[3]": {"target": "T1, OAT3 (Homo sapiens, UniProt Q8TCC7)", "T1 sequence (Q8TCC7 1-542)": "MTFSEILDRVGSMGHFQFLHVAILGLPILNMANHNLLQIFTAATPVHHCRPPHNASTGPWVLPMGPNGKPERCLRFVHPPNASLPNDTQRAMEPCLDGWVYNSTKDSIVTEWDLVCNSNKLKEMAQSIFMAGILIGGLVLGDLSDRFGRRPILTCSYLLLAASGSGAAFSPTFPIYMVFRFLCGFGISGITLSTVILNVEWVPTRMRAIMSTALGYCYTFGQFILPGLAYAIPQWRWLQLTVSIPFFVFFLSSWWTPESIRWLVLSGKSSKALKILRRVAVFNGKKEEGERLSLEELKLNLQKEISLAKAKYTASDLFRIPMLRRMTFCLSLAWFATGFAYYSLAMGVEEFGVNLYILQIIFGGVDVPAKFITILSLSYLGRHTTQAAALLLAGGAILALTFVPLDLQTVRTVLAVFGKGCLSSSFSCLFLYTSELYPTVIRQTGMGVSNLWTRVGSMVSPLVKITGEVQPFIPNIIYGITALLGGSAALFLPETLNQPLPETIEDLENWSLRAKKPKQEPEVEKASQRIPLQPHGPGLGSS", "assay": "OAT3 inhibition, estrone 3-sulfate uptake in transfected HEK293 cells", "method": "The pre-incubation solutions were removed, and incubation solutions containing the inhibitors and probe substrates (or transport buffer containing an equal volume of vehicle control and probe substrates) were added and incubated at 37°C for 2 min (5 min for OATP1B3). The probe substrate for OAT1 was 4-aminohippuric acid (10 μM), for OAT3 was estrone 3-sulfate (10 μM), for OCT2 was metformin (100 μM), for OATP1B1 was β-estradiol 17-(β-D-glucuronide) (5 μM), for OATP1B3 was β-estradiol 17-(β-D-glucuronide) (10 μM), and for MATE1 and MATE2-K was tetraethylammonium (10 μM). After incubation, cells were washed three times with ice-cold transport buffer (25 mM HEPES, pH 7.4, pH 8.0 for overexpressing MATE1 and MATE2-K HEK293 cells) and lysed in distilled water. The concentrations of probe substrates were determined by LC-MS/MS, and a BCA Kit (Solarbio ®Life Sciences, Beijing, China) was used to determine the protein content in the cell lysate.\nwhere C is the concentration of the drug in the cell lysate (nM), P is the protein concentration of the cell lysate (mg/mL), and T is the incubation time (minute). Uptake ratetest compound is the uptake rate of the substrate in the presence of the test compound. Uptake ratevehicle control is the uptake rate of the substrate in the presence of the vehicle control. Uptake ratepassive is the uptake rate of the substrate in the presence of the positive inhibitor at the top test concentration."}, "[4]": {"tested_on": "CYP3A4/5", "assay": "Reversible CYP inhibition in HLM, CYP3A4/5 (testosterone, midazolam)", "type": "in vitro ADME, human", "method": "The markers used to determine the activities of CYP isoforms were phenacetin O-deethylation for CYP1A2 (probe substrate: 50 µM phenacetin), bupropion hydroxylation for CYP2B6 (probe substrate: 70 µM bupropion), paclitaxel 6α-hydroxylation for CYP2C8 (probe substrate: 10 µM paclitaxel), diclofenac 4′-hydroxylation for CYP2C9 (probe substrate: 5 µM diclofenac), S-(+)-mephenytoin 4′-hydroxylation for CYP2C19 (probe substrate: 20 µM S-(+)-mephenytoin), dextromethorphan O-demethylation for CYP2D6 (probe substrate: 6 µM dextromethorphan), chlorzoxazone 6′-hydroxylation for CYP2E1 (probe substrate: 70 µM chlorzoxazone), and testosterone 6β-hydroxylation and midazolam 1′-hydroxylation for CYP3A4/5 (probe substrate: 45 µM testosterone and 5 µM midazolam). […] Alpha-naphthoflavone (0.04 µM), 2-phenyl-2-(1-piperidinyl)propane (5 µM), quercetin (1 µM), sulfaphenazole (0.5 µM), ticlopidine (4 µM), quinidine (0.2 µM), diethyldithiocarbamate (20 µM), and ketoconazole (0.05 µM) were used as positive inhibitors of CYP1A2, 2B6, 2C8, 2C9, 2C19, 2D6, 2E1, and 3A4, respectively. The vehicle control was prepared in the same composition as inhibitor solutions but free of inhibitors. The concentrations of probe substrates were close to Km values that were determined in-house and within the range recommended by the FDA ([Huang et al., 2007]). Reaction mixtures were incubated at 37°C for 5, 20, or 30 min, depending on the probe substrates of CYP isoforms. The reactions were terminated by adding cold acetonitrile containing IS, and the terminated incubation mixtures were centrifuged at 3,000 g for 10 min before LC-MS/MS analysis."}},
  "note": "Several values for one entry are separate records, joined by “and”; a condition that tells them apart may be missing. Equal entries are not always repeated.",
  "data": [
    {"smiles": "C[C@H](Nc1ncnc(N)c1C#N)c1cc2ncc(Cl)n2nc1-c1ccccc1", "note": "[Amdizalisib]", "values": [
      {"measurement": "Enzyme activity Percent of PC (%)", "setting": "[1]; CYP2C9, donor eight, 20 µM", "result": 14.5, "unit": "%"},
      {"measurement": "Enzyme activity Percent of PC (%)", "setting": "[1]; female, human, 48 h, 0.3 µM", "result": 5.63, "unit": "%"},
      {"measurement": "Enzyme activity Percent of PC (%)", "setting": "[1]; female, human, 48 h, 3 µM", "result": 30.0, "unit": "%"},
      {"measurement": "Enzyme activity Percent of PC (%)", "setting": "[1]; female, human, 48 h, 20 µM", "result": 38.1, "unit": "%"},
      {"measurement": "Enzyme activity Percent of PC (%)", "setting": "[1]; male, human, 48 h, 20 µM", "result": 36.5, "unit": "%"},
      {"measurement": "Enzyme activity Percent of PC (%)", "setting": "[2]; CYP 2C8, donor one, 3 µM", "result": 10.8, "unit": "%"},
      {"measurement": "Enzyme activity Percent of PC (%)", "setting": "[2]; female, human, 48 h, 0.3 µM", "result": 5.21, "unit": "%"},
      {"measurement": "Enzyme activity Percent of PC (%)", "setting": "[2]; female, human, 48 h, 20 µM", "result": -19.4, "unit": "%"},
      {"measurement": "IC50", "setting": "[3]", "result": 41.1, "unit": "µM"},
      {"measurement": "Percentage transported", "setting": "[3]; OAT3, compound 0.3 μM", "result": 96.4, "unit": "%"},
      {"measurement": "Uptake rate", "setting": "[3]; OAT3, compound 0.3 μM", "result": "101±1.22", "unit": "pmol/mg protein/min"},
      {"measurement": "Percentage transported", "setting": "[3]; OAT3, compound 1 μM", "result": 103, "unit": "%"},
      {"measurement": "Uptake rate", "setting": "[3]; OAT3, compound 1 μM", "result": "106±2.62", "unit": "pmol/mg protein/min"},
      {"measurement": "Percentage transported", "setting": "[3]; OAT3, compound 3 μM", "result": 97.5, "unit": "%"},
      {"measurement": "Uptake rate", "setting": "[3]; OAT3, compound 3 μM", "result": "102±3.76", "unit": "pmol/mg protein/min"},
      {"measurement": "Percentage transported", "setting": "[3]; OAT3, compound 10 μM", "result": 101, "unit": "%"},
      {"measurement": "Uptake rate", "setting": "[3]; OAT3, compound 10 μM", "result": "105±1.14", "unit": "pmol/mg protein/min"},
      {"measurement": "Percentage transported", "setting": "[3]; OAT3, compound 30 μM", "result": 52.3, "unit": "%"},
      {"measurement": "Uptake rate", "setting": "[3]; OAT3, compound 30 μM", "result": "63.6±3.38", "unit": "pmol/mg protein/min"},
      {"measurement": "Percentage transported", "setting": "[3]; OAT3, compound 100 μM", "result": 27.3, "unit": "%"},
      {"measurement": "Uptake rate", "setting": "[3]; OAT3, compound 100 μM", "result": "42.5±2.15", "unit": "pmol/mg protein/min"},
      {"measurement": "inhibition at 2 min, 0.3 µM", "setting": "[3]; human, pH 7.4", "result": 3.57, "unit": "%"},
      {"measurement": "inhibition at 2 min, 1 µM", "setting": "[3]; human, pH 7.4", "result": -2.52, "unit": "%"},
      {"measurement": "inhibition at 2 min, 3 µM", "setting": "[3]; human, pH 7.4", "result": 2.54, "unit": "%"},
      {"measurement": "inhibition at 2 min, 10 µM", "setting": "[3]; human, pH 7.4", "result": -0.883, "unit": "%"},
      {"measurement": "inhibition at 2 min, 30 µM", "setting": "[3]; human, pH 7.4", "result": 47.7, "unit": "%"},
      {"measurement": "inhibition at 2 min, 100 µM", "setting": "[3]; human, pH 7.4", "result": 72.7, "unit": "%"},
      {"measurement": "calculated R value (OAT3)", "setting": "[3]; renal OATs", "result": "< 1.1"},
      {"measurement": "enzyme activity remaining", "setting": "[4]; CYP3A4_Midazolam, 0.08 μM", "result": "93.8% and 105%"},
      {"measurement": "enzyme activity remaining", "setting": "[4]; CYP3A4_Midazolam, 0.4 μM", "result": "106% and 103%"},
      {"measurement": "enzyme activity remaining", "setting": "[4]; CYP3A4_Midazolam, 2 μM", "result": "103% and 100%"},
      {"measurement": "enzyme activity remaining", "setting": "[4]; CYP3A4_Midazolam, 10 μM", "result": "99.4% and 101%"},
      {"measurement": "enzyme activity remaining", "setting": "[4]; CYP3A4_Midazolam, 50 μM", "result": "89.1% and 86.3%"},
      {"measurement": "enzyme activity remaining", "setting": "[4]; CYP3A4_Testosterone, 0.08 μM", "result": "101% and 99.4%"},
      {"measurement": "enzyme activity remaining", "setting": "[4]; CYP3A4_Testosterone, 0.4 μM", "result": "86.1% and 90.5%"},
      {"measurement": "enzyme activity remaining", "setting": "[4]; CYP3A4_Testosterone, 2 μM", "result": "89.9% and 94.3%"},
      {"measurement": "enzyme activity remaining", "setting": "[4]; CYP3A4_Testosterone, 10 μM", "result": "83.5% and 84.8%"},
      {"measurement": "enzyme activity remaining", "setting": "[4]; CYP3A4_Testosterone, 50 μM", "result": "86.7% and 69.0%"},
      {"measurement": "IC50", "setting": "[4]; human, human liver microsomes, reversible, without pre-incubation", "result": "> 50", "unit": "µM"}
    ]}
  ]
}
